Experimental data as given in patent publication US10077237B2 (Sanofi, priority 2013, dated 2018).
Where “and” joins values, the source holds several entries; their conditions need not be identical. Equal entries are not always repeated. Structures can show the parent of a compound that is named as a salt.

Molecular target: T1, recombinant human AMPK complex, containing α2β1γ2 (Homo sapiens, UniProt P54646+Q9Y478)
T1 construct: hsAMPKα2-552-His, hsAMPKβ1-2-270 and hsAMPKγ-2-569 respectively; hsAMPKβ1-2-270; hsAMPKγ-2-569; His (C); made in house; host or cells: Spodoptera frugiperda Sf21 (baculovirus)
T1 sequence (P54646 2-552): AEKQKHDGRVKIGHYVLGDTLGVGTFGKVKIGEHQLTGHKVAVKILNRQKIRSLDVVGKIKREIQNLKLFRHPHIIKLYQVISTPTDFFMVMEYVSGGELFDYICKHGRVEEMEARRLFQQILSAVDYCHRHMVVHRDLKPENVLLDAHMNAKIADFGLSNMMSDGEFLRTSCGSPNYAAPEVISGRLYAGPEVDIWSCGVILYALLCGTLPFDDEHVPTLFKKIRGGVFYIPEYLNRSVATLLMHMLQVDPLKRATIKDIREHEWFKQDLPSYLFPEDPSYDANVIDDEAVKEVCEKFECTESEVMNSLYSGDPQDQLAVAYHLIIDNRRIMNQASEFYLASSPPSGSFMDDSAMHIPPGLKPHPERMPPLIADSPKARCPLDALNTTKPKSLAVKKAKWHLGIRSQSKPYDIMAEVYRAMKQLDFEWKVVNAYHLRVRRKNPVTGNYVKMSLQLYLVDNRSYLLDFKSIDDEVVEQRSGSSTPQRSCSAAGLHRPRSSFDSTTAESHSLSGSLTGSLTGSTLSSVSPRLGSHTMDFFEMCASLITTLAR
T1 sequence (Q9Y478 2-270): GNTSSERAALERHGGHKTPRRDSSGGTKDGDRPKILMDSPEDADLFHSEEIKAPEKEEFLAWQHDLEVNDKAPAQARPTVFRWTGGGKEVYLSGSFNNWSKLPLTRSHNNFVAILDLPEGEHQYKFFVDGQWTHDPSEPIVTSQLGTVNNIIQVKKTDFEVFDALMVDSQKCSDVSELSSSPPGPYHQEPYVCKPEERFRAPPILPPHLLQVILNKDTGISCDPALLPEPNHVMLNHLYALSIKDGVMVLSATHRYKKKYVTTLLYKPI
T1 sequence (Q9UGJ0 2-569 partner limits assumed): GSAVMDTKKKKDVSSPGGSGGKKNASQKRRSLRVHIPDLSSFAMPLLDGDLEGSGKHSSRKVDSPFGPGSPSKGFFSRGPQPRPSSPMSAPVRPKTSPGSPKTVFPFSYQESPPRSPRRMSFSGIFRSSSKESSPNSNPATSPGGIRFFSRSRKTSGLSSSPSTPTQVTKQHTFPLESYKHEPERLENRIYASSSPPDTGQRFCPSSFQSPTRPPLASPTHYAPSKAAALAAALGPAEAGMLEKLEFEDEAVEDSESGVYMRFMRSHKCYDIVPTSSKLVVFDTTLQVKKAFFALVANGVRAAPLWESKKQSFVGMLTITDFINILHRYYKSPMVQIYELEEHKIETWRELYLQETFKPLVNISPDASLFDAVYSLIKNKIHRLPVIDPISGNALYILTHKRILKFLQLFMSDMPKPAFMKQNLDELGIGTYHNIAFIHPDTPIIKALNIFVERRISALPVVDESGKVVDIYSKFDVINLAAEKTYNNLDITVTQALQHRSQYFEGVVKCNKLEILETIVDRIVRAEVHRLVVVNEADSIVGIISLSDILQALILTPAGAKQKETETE
Test: AMPK in vitro activation assay (HTRF)
Format: biochemical
Conditions: for EC50: HTRF, recombinant human α2β1γ2 AMPK, 200 μM ATP, biotinylated ACC-CREBp peptide, repeat determinations on separate lines; for Emax: potentiation of AMPK activity as percent over the basal signal (without compound)
Procedure, shortened: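 Sf21-expressed, Ni-NTA partially purified α2β1γ2 complex preincubated 30 min at room temperature with compound (0.5% DMSO) in HEPES pH 7.0, MgCl2, DTT. Reaction was started with a solution holding 200 μM ATP and 2 or 0.08 μM biotinylated ACC-CREBp peptide, run 45 min at 37° C, then read by HTRF with anti-pS133-CREB; EC50 from percent over basal.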

| Structure (SMILES) | EC50 | Emax |
| --- | --- | --- |
| Cc1cc(C(O)=C2C(=O)Nc3cc(Cl)c(-c4ccc(C5=CCOCC5)cc4)cc32)sn1 [Compound 48, 6-Chloro-5-[4-(3,6-dihydro-2H-pyran-4-yl)-phenyl]-3-[1-hydroxy-1-(3-methyl-isothiazol-5-yl)-methylidene]-1,3-dihydro-indol-2-one] | 95 nM | 87% |
| O=C1Nc2cc(Cl)c(-c3ccc(C4CC4)cc3)cc2C1=C(O)c1cccc(F)c1 [Compound 26, 6-Chloro-5-(4-cyclopropyl-phenyl)-3-[1-(3-fluoro-phenyl)-1-hydroxy-methylidene]-1,3-dihydro-indol-2-one] | 440 nM | 153% |
| Cc1cc(C(O)=C2C(=O)Nc3cc(Cl)c(-c4ccc(F)cc4O)cc32)on1 [Compound 56, 6-Chloro-5-(4-fluoro-2-hydroxy-phenyl)-3-[1-hydroxy-1-(3-methyl-isoxazol-5-yl)-methylidene]-1,3-dihydro-indol-2-one] | 150 nM | 189% |
| Cc1cc(C(O)=C2C(=O)Nc3cc(Cl)c(-c4ccc(N5CCCC5)cc4)cc32)on1 [Compound 24, 6-Chloro-3-[1-hydroxy-1-(3-methyl-isoxazol-5-yl)-methylidene]-5-(4-pyrrolidin-1-yl-phenyl)-1,3-dihydro-indol-2-one] | 110 nM | 143% |
| COCCCOc1ccc(-c2cc3c(cc2Cl)NC(=O)C3=C(O)c2cc(OC)no2)cc1 [Compound 131, 6-chloro-3-[hydroxy-(3-methoxyisoxazol-5-yl)methylene]-5-[4-(3-methoxypropoxy)phenyl]indolin-2-one] | 33 nM and 86 nM |  |
| O=C1Nc2cc(Cl)c(-c3ccc(N4CCOCC4)cc3)cc2C1=C(O)c1cc(C2CCCCC2)no1 [Compound 86, 6-chloro-3-[(3-cyclohexylisoxazol-5-yl)hydroxy-methylene]-5-(4-morpholinophenyl)indolin-2-one] | 61 nM | 155% |
| COc1cc(C(O)=C2C(=O)Nc3cc(Cl)c(-c4ccc(OCCCO)cc4)cc32)on1 [Compound 129, 6-chloro-3-[hydroxy-(3-methoxyisoxazol-5-yl)methylene]-5-[4-(3-hydroxypropoxy)phenyl]indolin-2-one] | 20 nM and 10 nM |  |

Other lines, results leading:

| EC50 | Emax | Structure (SMILES) |
| --- | --- | --- |
| 4 nM | 185% | Cc1cc(C(O)=C2C(=O)Nc3cc(Cl)c(-c4ccc(OCCCO)cc4)cc32)on1 [Compound 91, 6-chloro-3-[hydroxy-(3-methylisoxazol-5-yl)methylene]-5-[4-(3-hydroxypropoxy)phenyl]indolin-2-one] |
| 60 nM | 131% | O=C1Nc2cc(Cl)c(-c3ccc(C4CC(O)C4)cc3)cc2C1=C(O)c1ccc(F)cc1F (centres unmarked) [Compound 155, 6-chloro-3-[(2,4-difluorophenyl)hydroxy-methylene]-5-[4-(3-hydroxycyclobutyl)phenyl]indolin-2-one] |
| 1 nM | 175% | COc1cc(C(O)=C2C(=O)Nc3cc(Cl)c(-c4ccc(C5(CO)CC5)cc4F)cc32)on1 [Compound 111, 6-chloro-5-[2-fluoro-4-[1-(hydroxymethyl)cyclopropyl]phenyl]-3-[hydroxy-(3-methoxyisoxazol-5-yl)methylene]indolin-2-one] |
| 6 nM | 131% | COc1cc(C(O)=C2C(=O)Nc3cc(Cl)c(-c4ccc(C5(OC)CCC5)cc4)cc32)on1 [Compound 110, 6-chloro-3-[hydroxy-(3-methoxyisoxazol-5-yl)methylene]-5-[4-(1-methoxycyclobutyl)phenyl]indolin-2-one] |
| 15 nM | 267% | COc1cc(C(O)=C2C(=O)Nc3cc(Cl)c(-c4ccc(N(C)C)c(F)c4)cc32)on1 [Compound 147, 6-chloro-5-[4-(dimethylamino)-3-fluoro-phenyl]-3-[hydroxy-(3-methoxyisoxazol-5-yl)methylene]indolin-2-one] |
| 58 nM | 186% | CN1CCN(c2cccc(C(O)=C3C(=O)Nc4cc(Cl)c(-c5ccc(N6CCOCC6)cc5)cc43)c2)CC1 [Compound 93, 6-chloro-3-[hydroxy-[3-(4-methylpiperazin-1-yl)phenyl]methylene]-5-(4-morpholinophenyl)indolin-2-one hydrochloride] |
| 52 nM | 288% | COc1cc(C(O)=C2C(=O)Nc3cc(Cl)c(-c4ccc(OC5CCOCC5)cc4)cc32)on1 [Compound 128, 6-chloro-3-[hydroxy-(3-methoxyisoxazol-5-yl)methylene]-5-(4-tetrahydropyran-4-yloxyphenyl)indolin-2-one] |
